According to patent US9320271B2, “Microbial composition” (Rohm and Haas Company, priority 2011, dated 2016):
Where “and” joins values, the source holds several entries; their conditions need not be identical. Equal values may be shown once.

System: Escherichia coli (E. coli—ATCC #10536)
Test: Synergy test: high resolution MBC microtiter plate assay, phosphate buffer containing 35% dipropylene glycol, 15 seconds contact
Format: cell-based
Settings: E. coli 10536; for MBC of the component acting alone (QA / QB; Qa or Qb where the other component is 0): complete kill in 15 seconds

Cc1ccc(C(C)C)c(O)c1O [3-isopropyl-6-methylbenzene-1,2-diol]
SI (Synergy Index) (at Qa and Qb, less than one = synergy): 1.00
MBC of the component acting alone (QA / QB; Qa or Qb where the other component is 0): 1.0 weight % and 0.8 weight %
MBC of the component acting alone (QA / QB; Qa or Qb where the other component is 0) (listed as 3-isopronyl-6-methylbenzene-1,2-diol): 0.8 weight %
